Source: patent US12084458B2, “Substituted pyridines, pyridazines, and pyrimidines as TYK2 inhibitors” (Sudo Biosciences Limited, priority 2021, dated 2024)

Experiments:
JAK3 kinase domain (JH1) = molecular target: T1, JAK3 kinase domain (JH1) (Homo sapiens, UniProt P52333); test: HTRF-based selectivity assay, JAK3 catalytic domain; assay type: biochemical; conditions: recombinant catalytic domain, ATP 2.12 μM
T1 construct: recombinant purified His or GST-tagged catalytic domain for each enzyme; purchased Carna biosciences 08-046
T1 sequence (P52333 822-1111 limits assumed): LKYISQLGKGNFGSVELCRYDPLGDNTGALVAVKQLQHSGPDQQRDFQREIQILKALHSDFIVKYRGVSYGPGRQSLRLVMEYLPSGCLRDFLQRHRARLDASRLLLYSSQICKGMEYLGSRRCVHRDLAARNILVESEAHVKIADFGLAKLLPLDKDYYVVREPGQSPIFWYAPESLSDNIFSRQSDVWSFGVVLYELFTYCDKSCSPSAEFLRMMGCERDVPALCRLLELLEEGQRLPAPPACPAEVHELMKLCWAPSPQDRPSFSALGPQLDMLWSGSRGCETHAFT
Description: (§1) Example B-2: HTRF-Based Selectivity Assay
(§2) The ability of compounds to inhibit the activity of JAK1, JAK2, JAK3 and TYK2 is measured using a recombinant purified His or GST-tagged catalytic domain for each enzyme (JAK1, JAK2 and TYK2 are generated in-house; JAK3 was purchased from Carna biosciences, Cat #08-046) in an HTRF format biochemical assay. The reactions employs a commercial peptide substrate from Cisbio (Cat #62TK0PEC). The basic assay protocol is as follows: first, 2.5 μL of diluted compounds (4×) in DMSO are dispensed into a 384-well Optiplate. Next, 2.5 μL of enzyme (final concentrations for enzymes are: TYK2—700 ng/mL, JAK1—80.6 ng/mL, JAK2—2.1 ng/mL and JAK3—171.8 ng/mL) is added and incubated at RT for 5-20 min. Finally, 5 μl of mixture of 2× ATP [Final concentration 20 μM for TYK2, 21.43 μM for JAK1, 14.7 μM for JAK2 and 2.12 μM for JAK3]+2× Substrate [Final concentration 217 nM for TYK2, 454.7 nM for JAK1, 200 nM for JAK2 and 257.4 nM for JAK3] is added to 384 well Optiplate. Composition of Kinase assay buffer used in the assay is as follows: HEPES 50 mM, EGTA 1 mM, MgCl2 10 mM, DTT 2 mM, Tween-20 0.01% and water. Then the plates are shaken and then incubated at 26.5° C. for 60 min.

JAK2 kinase domain (JH1) = molecular target: T2, JAK2 kinase domain (JH1) (Homo sapiens, UniProt O60674); test: HTRF-based selectivity assay, JAK2 catalytic domain; assay type: biochemical; conditions: recombinant catalytic domain, ATP 14.7 μM
T2 construct: recombinant purified His or GST-tagged catalytic domain for each enzyme; made in house
T2 sequence (O60674 849-1124 limits assumed): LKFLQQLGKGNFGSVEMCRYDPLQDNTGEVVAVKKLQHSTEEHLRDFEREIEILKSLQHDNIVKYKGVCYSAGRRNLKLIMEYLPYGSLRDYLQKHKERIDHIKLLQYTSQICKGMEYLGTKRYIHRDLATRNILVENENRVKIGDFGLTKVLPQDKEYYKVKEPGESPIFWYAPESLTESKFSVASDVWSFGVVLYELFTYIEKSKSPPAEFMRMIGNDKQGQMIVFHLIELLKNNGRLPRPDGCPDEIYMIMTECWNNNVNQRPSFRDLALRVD
Description: as §1, §2

TYK2 kinase domain (JH1) = molecular target: T3, TYK2 kinase domain (JH1) (Homo sapiens, UniProt P29597); test: HTRF-based selectivity assay, TYK2 catalytic domain; assay type: biochemical; conditions: recombinant catalytic domain, ATP 20 μM
T3 construct: recombinant purified His or GST-tagged catalytic domain for each enzyme; made in house
T3 sequence (P29597 897-1176 limits assumed): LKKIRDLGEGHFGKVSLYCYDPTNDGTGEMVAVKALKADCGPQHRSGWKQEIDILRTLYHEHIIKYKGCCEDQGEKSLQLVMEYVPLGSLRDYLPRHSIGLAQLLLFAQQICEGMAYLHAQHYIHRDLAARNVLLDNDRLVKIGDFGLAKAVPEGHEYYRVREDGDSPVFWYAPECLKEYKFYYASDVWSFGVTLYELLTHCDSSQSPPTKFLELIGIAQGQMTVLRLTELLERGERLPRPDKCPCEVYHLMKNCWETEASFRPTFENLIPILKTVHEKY
Description: as §1, §2

JAK1 kinase domain (JH1) = molecular target: T4, JAK1 kinase domain (JH1) (Homo sapiens, UniProt P23458); test: HTRF-based selectivity assay, JAK1 catalytic domain; assay type: biochemical; conditions: recombinant catalytic domain, ATP 21.43 μM
T4 construct: recombinant purified His or GST-tagged catalytic domain for each enzyme; made in house
T4 sequence (P23458 875-1153 limits assumed): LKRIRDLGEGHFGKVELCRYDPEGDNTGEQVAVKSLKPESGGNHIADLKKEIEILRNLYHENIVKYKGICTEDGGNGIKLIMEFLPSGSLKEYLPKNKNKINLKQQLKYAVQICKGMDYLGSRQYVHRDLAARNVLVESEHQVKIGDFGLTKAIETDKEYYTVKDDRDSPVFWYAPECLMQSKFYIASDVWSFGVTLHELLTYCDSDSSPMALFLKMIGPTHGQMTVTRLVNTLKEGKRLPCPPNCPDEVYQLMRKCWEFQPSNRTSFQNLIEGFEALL
Description: as §1, §2

[1] = tested on: HEK-Blue IFNα/β cells (IFNα-stimulated STAT1 SEAP reporter; TYK2 JH2); test: HEK-Blue IFNα/β SEAP reporter assay for profiling TYK2 pseudokinase (JH2) inhibition; assay type: cell-based; conditions: Homo sapiens, HEK-Blue, 1 ng/mL human recombinant IFNα, read-out: IFNα (TYK2 inhibitory activity, IC50)
In short: (§3)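 Serial compound dilutions preincubated 60 min with cells. IL-23: 10 ng/mL, 22-24 h. IFNα: 1 ng/mL, 16-18 h. QUANTI-Blue SEAP detection.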

[2] = tested on: HEK-Blue IL-23 cells (IL-23-stimulated STAT3 SEAP reporter; TYK2 JH2); test: HEK-Blue IL-23 SEAP reporter assay for profiling TYK2 pseudokinase (JH2) inhibition; assay type: cell-based; conditions: 10 ng/mL human recombinant IL-23, SEAP reporter, read-out: IL23 (TYK2 inhibitory activity, IC50)
In short: as §3

[3] = tested on: HEK-Blue IL-2 reporter cells (IL-2-stimulated STAT5 SEAP reporter); test: HEK-Blue IL-2 SEAP reporter assay for determining selectivity; assay type: cell-based; conditions: 4 ng/mL human recombinant IL-2
In short: (§4)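 Cells were plated for 20-22 h, then pretreated with serially diluted compound for 60 min. They were stimulated for 24 h with 4 ng/mL human recombinant IL-2 or 50 ng/mL human recombinant IFNγ, and SEAP induction was read with QUANTI-Blue.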

[4] = tested on: HEK-Blue IFNγ reporter cells (IFNγ-stimulated STAT1 SEAP reporter); test: HEK-Blue IFNγ SEAP reporter assay for determining selectivity; assay type: cell-based; conditions: Homo sapiens, HEK-Blue, 50 ng/mL human recombinant IFNγ, read-out: IFN-γ (SEAP selectivity, IC50)
In short: as §4

Compound	IC50 (JAK3 kinase domain (JH1)) [nM]	IC50 (JAK2 kinase domain (JH1)) [nM]	IC50 (TYK2 kinase domain (JH1)) [nM]	IC50 (JAK1 kinase domain (JH1)) [nM]	IC50 [1] [nM]	IC50 [2] [nM]	IC50 [3] [nM]	IC50 [4] [nM]
[2H]C([2H])([2H])NC(=O)c1nnc(NC(=O)[C@H]2C[C@H]2F)cc1Nc1cccc2c1N(C)Cc1nc(C)nn1-2 (single isomer, unassigned) [Compound 8]	> 1000	> 1000	> 1000	> 1000	30 to 300	< 30	> 1000	
[2H]C([2H])([2H])NC(=O)c1nnc(NC(=O)C2CC2)cc1Nc1cccc2c1N(C)Cc1nc(C)nn1-2 [Compound 5, 6-(cyclopropanecarboxamido)-4-((2,5-dimethyl-4,5-dihydro-[1,2,4]triazolo[1,5-a]quinoxalin-6-yl)amino)-N-(methyl-d3)pyridazine-3-carboxamide]	> 1000	> 1000	> 1000	> 1000	< 30	< 30	> 1000	30 to 300
[2H]C([2H])([2H])NC(=O)c1cnc(NC(=O)C2CC2)cc1Nc1cccc2c1N(C)Cc1ncnn1-2 [Compound 6, 6-(cyclopropanecarboxamido)-N-(methyl-d3)-4-((5-methyl-4,5-dihydro-[1,2,4]triazolo[1,5-a]quinoxalin-6-yl)amino)nicotinamide]	> 1000	> 1000	> 1000	> 1000	< 30	< 30	> 1000	300 to 1000
[2H]C([2H])([2H])NC(=O)c1nnc(Nc2ccc(C(F)(F)F)cn2)cc1Nc1cccc2c1N(C)Cc1nc(C)nn1-2 [Compound 10, 4-((2,5-dimethyl-4,5-dihydro-[1,2,4]triazolo[1,5-a]quinoxalin-6-yl)amino)-N-(methyl-d3)-6-((5-(trifluoromethyl)pyridin-2-yl)amino)pyridazine-3-carboxamide]	> 1000	> 1000	> 1000	> 1000	30 to 300	< 30	> 1000	
[2H]C([2H])([2H])NC(=O)c1nnc(Nc2ccc(C)cn2)cc1Nc1cccc2c1N(C)Cc1nc(C)nn1-2 [Compound 11, 4-((2,5-dimethyl-4,5-dihydro-[1,2,4]triazolo[1,5-a]quinoxalin-6-yl)amino)-N-(methyl-d3)-6-((5-methylpyridin-2-yl)amino)pyridazine-3-carboxamide]	> 1000	> 1000	> 1000	> 1000	< 30	< 30		
[2H]C([2H])([2H])NC(=O)c1nnc(Nc2ccc(F)cn2)cc1Nc1cccc2c1N(C)Cc1nc(C)nn1-2 [Compound 12, 4-((2,5-dimethyl-4,5-dihydro-[1,2,4]triazolo[1,5-a]quinoxalin-6-yl)amino)-6-((5-fluoropyridin-2-yl)amino)-N-(methyl-d3)pyridazine-3-carboxamide]	> 1000	> 1000	> 1000	> 1000	< 30	< 30	30 to 300	
[2H]C([2H])([2H])NC(=O)c1nnc(Nc2ccc(C#N)cn2)cc1Nc1cccc2c1N(C)Cc1nc(C)nn1-2 [Compound 13, 6-((5-cyanopyridin-2-yl)amino)-4-((2,5-dimethyl-4,5-dihydro-[1,2,4]triazolo[1,5-a]quinoxalin-6-yl)amino)-N-(methyl-d3)pyridazine-3-carboxamide]	> 1000	> 1000	> 1000	> 1000	< 30	< 30	> 1000	
[2H]C([2H])([2H])NC(=O)c1cnc(NC(=O)C2CC2)cc1Nc1cccc2c1N(C)Cc1nn(C)nc1-2 [Compound 45, 6-(cyclopropanecarboxamido)-4-((2,5-dimethyl-4,5-dihydro-2H-[1,2,3]triazolo[4,5-c]quinolin-6-yl)amino)-N-(methyl-d3)nicotinamide]	> 1000	> 1000		> 1000	< 30	< 30	> 1000	30 to 300
[2H]C([2H])([2H])NC(=O)c1nnc(NC(=O)C2CC2)cc1Nc1cccc2c1N(C)Cc1nn(C)nc1-2 [Compound 46, 6-(cyclopropanecarboxamido)-4-((2,5-dimethyl-4,5-dihydro-2H-[1,2,3]triazolo[4,5-c]quinolin-6-yl)amino)-N-(methyl-d3)pyridazine-3-carboxamide]	> 1000	> 1000		> 1000	< 30	< 30	> 1000	30 to 300
[2H]C([2H])([2H])NC(=O)c1cnc(NC(=O)C2CC2)cc1Nc1cccc2c1N(C([2H])([2H])[2H])Cc1nn(C)nc1-2 [Compound 47, 6-(cyclopropanecarboxamido)-N-(methyl-d3)-4-((2-methyl-5-(methyl-d3)-4,5-dihydro-2H-[1,2,3]triazolo[4,5-c]quinolin-6-yl)amino)nicotinamide]	> 1000		> 1000	> 1000	< 30	< 30	> 1000	30 to 300
[2H]C([2H])([2H])NC(=O)c1cnc(NC(=O)C2CC2)cc1Nc1cccc2c1N(C)C([2H])([2H])c1nn(C)nc1-2 [Compound 52, 6-(cyclopropanecarboxamido)-4-((2,5-dimethyl-4,5-dihydro-2H-[1,2,3]triazolo[4,5-c]quinolin-6-yl-4,4-d2)amino)-N-(methyl-d3)nicotinamide]	> 1000	> 1000	> 1000	> 1000	< 30	< 30	> 1000	
[2H]C([2H])([2H])NC(=O)c1cnc(NC(=O)C2CC2)cc1Nc1cccc2c1N(C)CCn1cnnc1-2 [Compound 78, 6-(cyclopropanecarboxamido)-N-(methyl-d3)-4-((7-methyl-6,7-dihydro-5H-benzo[f][1,2,4]triazolo[4,3-d][1,4]diazepin-8-yl)amino)nicotinamide]	> 1000	> 1000	> 1000	> 1000	> 1000	30 to 300		
[2H]C([2H])([2H])NC(=O)c1nnc(NC(=O)C2CC2)cc1Nc1nccc2c1N(C)Cc1nn(C)nc1-2 [Compound 88, 6-(cyclopropanecarboxamido)-4-((2,5-dimethyl-4,5-dihydro-2H-[1,2,3]triazolo[4,5-c][1,7]naphthyridin-6-yl)amino)-N-(methyl-d3)pyridazine-3-carboxamide]		> 1000	> 1000	> 1000	< 30	< 30	300 to 1000	30 to 300
[2H]C([2H])([2H])NC(=O)c1cnc(NC(=O)C2CC2)cc1Nc1nccc2c1N(C)Cc1nn(C)nc1-2 [Compound 89, 6-(cyclopropanecarboxamido)-4-((2,5-dimethyl-4,5-dihydro-2H-[1,2,3]triazolo[4,5-c][1,7]naphthyridin-6-yl)amino)-N-(methyl-d3)nicotinamide]	> 1000	> 1000	> 1000	> 1000	< 30	< 30	> 1000	
